Activity calls are given as the source filed them. No cut-off for these calls is given here.
Experiments:
[1] = target: Serine/threonine-protein kinase D2 (Homo sapiens) (UniProt Q9BZL6); experiment: Inhibition of human PRKD2 at 1 uM using RBER-CHKtide as substrate in presence of 33P-ATP by ProQinase assay
[2] = target: MAP kinase-activated protein kinase 5 (Homo sapiens) (UniProt Q8IW41); experiment: Inhibition of human MAPKAPK5 at 1 uM using RBER-CHKtide as substrate in presence of 33P-ATP by ProQinase assay
Chain of MAP kinase-activated protein kinase 5 (Homo sapiens) (Q8IW41 whole entry): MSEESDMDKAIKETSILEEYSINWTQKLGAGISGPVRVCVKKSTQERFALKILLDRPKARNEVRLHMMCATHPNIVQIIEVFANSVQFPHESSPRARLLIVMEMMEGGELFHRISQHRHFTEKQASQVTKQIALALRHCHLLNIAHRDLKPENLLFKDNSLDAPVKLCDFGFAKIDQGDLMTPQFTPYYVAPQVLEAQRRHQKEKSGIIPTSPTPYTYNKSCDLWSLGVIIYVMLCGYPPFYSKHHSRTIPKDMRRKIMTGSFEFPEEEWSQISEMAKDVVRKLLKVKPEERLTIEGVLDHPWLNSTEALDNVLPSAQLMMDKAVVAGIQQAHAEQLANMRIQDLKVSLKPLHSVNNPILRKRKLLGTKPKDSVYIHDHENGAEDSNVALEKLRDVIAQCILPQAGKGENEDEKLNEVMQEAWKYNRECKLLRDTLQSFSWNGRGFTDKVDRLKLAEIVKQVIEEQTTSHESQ

[3] = target: Mitogen-activated protein kinase 15 (Homo sapiens) (UniProt Q8TD08); experiment: Inhibition of human ERK7 at 1 uM using RBER-CHKtide as substrate in presence of 33P-ATP by ProQinase assay
Chain of Mitogen-activated protein kinase 15 (Homo sapiens) (Q8TD08 whole entry): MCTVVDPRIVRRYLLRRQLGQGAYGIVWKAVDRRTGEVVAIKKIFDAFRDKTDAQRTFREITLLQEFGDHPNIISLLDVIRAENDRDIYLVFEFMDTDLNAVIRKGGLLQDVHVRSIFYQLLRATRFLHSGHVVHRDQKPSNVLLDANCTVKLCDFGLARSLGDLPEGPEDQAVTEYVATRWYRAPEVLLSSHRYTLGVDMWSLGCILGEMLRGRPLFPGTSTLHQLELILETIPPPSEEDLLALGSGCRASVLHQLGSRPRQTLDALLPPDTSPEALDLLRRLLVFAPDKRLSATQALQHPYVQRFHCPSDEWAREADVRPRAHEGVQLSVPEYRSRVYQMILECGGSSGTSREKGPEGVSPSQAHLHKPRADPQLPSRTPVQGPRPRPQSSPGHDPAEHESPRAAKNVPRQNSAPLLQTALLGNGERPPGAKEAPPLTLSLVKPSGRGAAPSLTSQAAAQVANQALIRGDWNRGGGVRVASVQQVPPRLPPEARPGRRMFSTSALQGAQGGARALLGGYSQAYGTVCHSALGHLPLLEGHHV

[4] = target: cGMP-dependent protein kinase 2 (Homo sapiens) (UniProt Q13237); experiment: Inhibition of human PRKG2 at 1 uM using RBER-GSK3 as substrate in presence of 33P-ATP by ProQinase assay
Chain of cGMP-dependent protein kinase 2 (Homo sapiens) (Q13237 whole entry): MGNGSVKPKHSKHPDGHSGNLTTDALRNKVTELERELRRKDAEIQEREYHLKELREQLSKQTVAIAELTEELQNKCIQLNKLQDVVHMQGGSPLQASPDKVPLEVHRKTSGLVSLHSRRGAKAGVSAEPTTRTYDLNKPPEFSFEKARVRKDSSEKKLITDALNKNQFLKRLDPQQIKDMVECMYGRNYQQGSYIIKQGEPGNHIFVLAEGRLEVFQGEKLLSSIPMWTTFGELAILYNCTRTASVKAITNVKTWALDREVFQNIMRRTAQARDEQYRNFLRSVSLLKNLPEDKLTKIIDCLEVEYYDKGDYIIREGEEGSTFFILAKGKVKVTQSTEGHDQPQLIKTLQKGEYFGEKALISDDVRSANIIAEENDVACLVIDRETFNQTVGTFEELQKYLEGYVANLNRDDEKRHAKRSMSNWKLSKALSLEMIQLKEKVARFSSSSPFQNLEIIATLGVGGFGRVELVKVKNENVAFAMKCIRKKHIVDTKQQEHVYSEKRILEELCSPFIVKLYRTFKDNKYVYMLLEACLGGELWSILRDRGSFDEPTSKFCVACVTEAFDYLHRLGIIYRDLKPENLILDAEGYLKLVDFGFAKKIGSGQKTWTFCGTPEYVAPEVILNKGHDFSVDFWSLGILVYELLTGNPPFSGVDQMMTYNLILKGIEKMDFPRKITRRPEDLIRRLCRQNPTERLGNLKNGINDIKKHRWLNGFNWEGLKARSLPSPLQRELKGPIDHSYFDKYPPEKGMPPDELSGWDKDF

[5] = target: Tyrosine-protein kinase Mer (Homo sapiens) (UniProt Q12866); experiment: Inhibition of human MERTK at 1 uM using polyEY as substrate in presence of 33P-ATP by ProQinase assay
Chain of Tyrosine-protein kinase Mer (Homo sapiens) (Q12866 whole entry, the tested form may be a part): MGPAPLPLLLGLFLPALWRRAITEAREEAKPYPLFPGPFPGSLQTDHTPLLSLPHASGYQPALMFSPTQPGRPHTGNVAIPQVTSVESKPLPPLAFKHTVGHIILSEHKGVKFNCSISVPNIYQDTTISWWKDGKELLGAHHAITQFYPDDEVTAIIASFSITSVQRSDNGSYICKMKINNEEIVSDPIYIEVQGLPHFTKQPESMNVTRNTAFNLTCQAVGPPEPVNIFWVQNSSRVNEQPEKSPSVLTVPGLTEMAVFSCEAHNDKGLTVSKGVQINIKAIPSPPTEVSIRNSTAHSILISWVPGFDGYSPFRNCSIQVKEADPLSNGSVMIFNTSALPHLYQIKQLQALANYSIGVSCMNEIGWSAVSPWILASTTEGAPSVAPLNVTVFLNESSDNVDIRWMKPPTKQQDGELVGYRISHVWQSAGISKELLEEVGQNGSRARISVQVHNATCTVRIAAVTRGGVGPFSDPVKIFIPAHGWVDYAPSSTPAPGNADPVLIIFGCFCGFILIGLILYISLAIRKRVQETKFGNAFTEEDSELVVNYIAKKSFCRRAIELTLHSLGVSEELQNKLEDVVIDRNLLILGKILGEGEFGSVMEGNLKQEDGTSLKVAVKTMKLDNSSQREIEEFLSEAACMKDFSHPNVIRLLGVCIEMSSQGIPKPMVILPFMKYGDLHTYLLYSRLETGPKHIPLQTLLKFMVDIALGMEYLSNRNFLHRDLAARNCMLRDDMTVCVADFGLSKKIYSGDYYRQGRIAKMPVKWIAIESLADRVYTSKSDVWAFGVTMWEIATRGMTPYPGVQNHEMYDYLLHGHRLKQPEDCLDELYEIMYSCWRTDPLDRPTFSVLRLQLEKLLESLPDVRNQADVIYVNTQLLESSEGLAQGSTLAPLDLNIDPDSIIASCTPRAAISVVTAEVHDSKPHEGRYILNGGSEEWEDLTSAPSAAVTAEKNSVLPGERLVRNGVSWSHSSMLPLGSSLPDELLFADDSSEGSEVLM

[6] = target: Mitogen-activated protein kinase 3 (Homo sapiens) (UniProt P27361); experiment: Inhibition of recombinant human N-terminal GST-tagged ERK1 (2 to 379 residues) expressed in Escherichia coli assessed as remaining activity at 1 uM using MBP as substrate incubated for 30 mins in presence of [gamma-33P]ATP by filter binding method relative to control
[7] = target: Leucine-rich repeat serine/threonine-protein kinase 2 (Homo sapiens) (UniProt Q5S007); experiment: Inhibition of human LRRK2 at 1 uM using RBER-GSK3 as substrate in presence of 33P-ATP by ProQinase assay
[8] = target: Casein kinase I isoform gamma-1 (Homo sapiens) (UniProt Q9HCP0); experiment: Inhibition of human CK1gamma1 at 1 uM using casein as substrate in presence of 33P-ATP by ProQinase assay
Chain of Casein kinase I isoform gamma-1 (Homo sapiens) (Q9HCP0 whole entry, looked up, the tested form may be a part, canonical isoform): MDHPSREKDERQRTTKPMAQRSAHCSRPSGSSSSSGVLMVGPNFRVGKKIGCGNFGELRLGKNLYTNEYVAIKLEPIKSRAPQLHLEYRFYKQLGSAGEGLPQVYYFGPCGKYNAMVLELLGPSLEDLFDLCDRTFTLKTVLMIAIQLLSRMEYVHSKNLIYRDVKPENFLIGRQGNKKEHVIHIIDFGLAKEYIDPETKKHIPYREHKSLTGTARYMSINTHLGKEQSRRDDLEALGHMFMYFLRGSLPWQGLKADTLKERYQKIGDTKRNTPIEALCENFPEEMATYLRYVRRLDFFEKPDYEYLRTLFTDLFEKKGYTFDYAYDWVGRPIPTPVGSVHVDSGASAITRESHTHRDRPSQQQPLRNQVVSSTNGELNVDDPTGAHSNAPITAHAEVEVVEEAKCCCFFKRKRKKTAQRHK

[9] = target: Phosphatidylinositol 4-kinase beta (Homo sapiens, UniProt Q9UBF8); experiment: Inhibition of recombinant human N-terminal His6-tagged PIK4Cbeta (1 to 801 residues) expressed in baculovirus expression system at 1 uM using […] as substrate incubated for 45 mins by ADP-Glo assay
[10] = target: Serine/threonine-protein kinase B-raf (Homo sapiens) (UniProt P15056); experiment: Inhibition of human BRAF at 1 uM using MEK1-K97M as substrate in presence of 33P-ATP by ProQinase assay
[11] = target: Serine/threonine-protein kinase MARK1 (Homo sapiens) (UniProt Q9P0L2); experiment: Inhibition of human MARK1 at 1 uM using RBER-CHKtide as substrate in presence of 33P-ATP by ProQinase assay
Chain of Serine/threonine-protein kinase MARK1 (Homo sapiens) (Q9P0L2 whole entry, looked up, the tested form may be a part): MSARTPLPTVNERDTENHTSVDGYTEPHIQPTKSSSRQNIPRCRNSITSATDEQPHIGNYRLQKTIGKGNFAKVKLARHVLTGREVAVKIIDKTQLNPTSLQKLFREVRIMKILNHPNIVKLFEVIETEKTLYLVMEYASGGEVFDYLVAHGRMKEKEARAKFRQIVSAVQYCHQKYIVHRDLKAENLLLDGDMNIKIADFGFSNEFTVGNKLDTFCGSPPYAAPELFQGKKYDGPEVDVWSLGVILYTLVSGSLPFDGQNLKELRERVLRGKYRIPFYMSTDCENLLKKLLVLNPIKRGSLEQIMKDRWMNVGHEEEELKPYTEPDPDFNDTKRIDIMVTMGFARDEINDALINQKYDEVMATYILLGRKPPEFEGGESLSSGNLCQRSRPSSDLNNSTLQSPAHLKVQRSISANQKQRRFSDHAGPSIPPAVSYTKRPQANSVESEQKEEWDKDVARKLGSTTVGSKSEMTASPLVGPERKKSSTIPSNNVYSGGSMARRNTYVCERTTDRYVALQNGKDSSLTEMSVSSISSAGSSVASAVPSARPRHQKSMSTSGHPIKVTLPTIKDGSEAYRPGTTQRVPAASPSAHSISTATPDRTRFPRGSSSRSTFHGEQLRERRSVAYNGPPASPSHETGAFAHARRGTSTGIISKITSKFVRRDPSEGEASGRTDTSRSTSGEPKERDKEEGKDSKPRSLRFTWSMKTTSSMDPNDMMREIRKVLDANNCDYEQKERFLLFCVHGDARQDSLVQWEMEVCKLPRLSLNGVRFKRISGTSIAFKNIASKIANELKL

[12] = target: Mitogen-activated protein kinase 10 (Homo sapiens) (UniProt P53779); experiment: Inhibition of recombinant human N-terminal GST/C-terminal His6-tagged JNK3 (40 to 422 residues) expressed in Escherichia coli assessed as remaining activity at 1 uM using ATF2 as substrate incubated for 30 mins in presence of [gamma-33P]ATP by filter binding method relative to control
[13] = system: RAF proto-oncogene serine/threonine-protein kinase (Homo sapiens), P04049 [Y340D,Y341D]; experiment: Inhibition of human RAF1 Y340D/Y341D double mutant at 1 uM using MEK1-K97M as substrate in presence of 33P-ATP by ProQinase assay
[14] = target: Vascular endothelial growth factor receptor 3 (Homo sapiens) (UniProt P35916); experiment: Inhibition of human VEGFR3 at 1 uM using polyEY as substrate in presence of 33P-ATP by ProQinase assay
[15] = target: Fibroblast growth factor receptor 4 (Homo sapiens) (UniProt P22455); experiment: Inhibition of human FGFR4 at 1 uM using polyEy as substrate in presence of 33P-ATP by ProQinase assay
Chain of Fibroblast growth factor receptor 4 (Homo sapiens) (P22455 22-802 limits assumed): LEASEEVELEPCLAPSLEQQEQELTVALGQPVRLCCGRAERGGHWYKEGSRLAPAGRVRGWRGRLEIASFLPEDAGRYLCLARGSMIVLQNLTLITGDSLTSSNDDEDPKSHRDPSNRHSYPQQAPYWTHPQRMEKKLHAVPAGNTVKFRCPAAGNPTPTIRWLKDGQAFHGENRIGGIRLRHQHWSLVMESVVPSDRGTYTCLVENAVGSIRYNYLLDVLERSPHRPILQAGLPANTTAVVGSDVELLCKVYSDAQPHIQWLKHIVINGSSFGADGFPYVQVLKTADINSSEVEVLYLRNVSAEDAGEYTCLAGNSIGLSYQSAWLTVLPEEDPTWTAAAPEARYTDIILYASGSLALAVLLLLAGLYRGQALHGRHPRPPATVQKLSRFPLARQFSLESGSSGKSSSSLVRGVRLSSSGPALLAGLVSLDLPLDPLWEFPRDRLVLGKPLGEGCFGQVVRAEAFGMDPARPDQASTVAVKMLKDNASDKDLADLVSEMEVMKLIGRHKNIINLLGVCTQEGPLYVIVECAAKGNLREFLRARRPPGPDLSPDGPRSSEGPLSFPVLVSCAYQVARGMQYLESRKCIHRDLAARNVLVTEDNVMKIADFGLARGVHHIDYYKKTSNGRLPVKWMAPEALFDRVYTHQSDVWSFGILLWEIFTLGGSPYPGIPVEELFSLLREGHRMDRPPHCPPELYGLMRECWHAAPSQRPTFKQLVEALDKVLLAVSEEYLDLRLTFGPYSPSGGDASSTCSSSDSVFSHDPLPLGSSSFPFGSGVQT

[16] = target: Diacylglycerol kinase beta (Homo sapiens) (UniProt Q9Y6T7); experiment: Inhibition of DGKbeta (unknown origin) at 1 uM
[17] = target: Tyrosine-protein kinase Srms (Homo sapiens) (UniProt Q9H3Y6); experiment: Inhibition of human SRMS at 1 uM using PolyEY as substrate in presence of 33P-ATP by ProQinase assay
[18] = target: Calcium/calmodulin-dependent protein kinase kinase 2 (Homo sapiens) (UniProt Q96RR4); experiment: Inhibition of human CAMKK2 at 1 uM using RBER-GSK3 as substrate in presence of 33P-ATP by ProQinase assay
[19] = target: Serine/threonine-protein kinase pim-3 (Homo sapiens) (UniProt Q86V86); experiment: Inhibition of human PIM3 at 1 uM using RBER-GSK3 as substrate in presence of 33P-ATP by ProQinase assay
Homo sapiens [20] = organism: Homo sapiens; experiment: Inhibition of DGK (unknown origin) at 1 uM
Homo sapiens [21] = organism: Homo sapiens; experiment: Inhibition of recombinant human MKK1 (2 to 393 residues) expressed in Escherichia coli assessed as remaining activity at 1 uM using MBP as substrate incubated for 30 mins in presence of [gamma-33P]ATP by filter binding method relative to control
[22] = target: Dual serine/threonine and tyrosine protein kinase (Homo sapiens) (UniProt Q6XUX3); experiment: Inhibition of human RIPK5 at 1 uM using RBER-CHKtide as substrate in presence of 33P-ATP by ProQinase assay
[23] = target: Dual specificity protein kinase TTK (Homo sapiens) (UniProt P33981); experiment: Inhibition of recombinant human N-terminal His6-tagged TTK (1 to 857 residues) expressed in baculovirus infected Sf21 cells assessed as remaining activity at 1 uM using RSRSRSRSRSRSRSR as substrate incubated for 30 mins in presence of [gamma-33P]ATP by filter binding method relative to control
[24] = target: Serine/threonine-protein kinase WNK1 (Homo sapiens) (UniProt Q9H4A3); experiment: Inhibition of human WNK1 at 1 uM using 3xChocktide-PKC as substrate in presence of 33P-ATP by ProQinase assay
[25] = target: Serine/threonine-protein kinase Chk2 (Homo sapiens) (UniProt O96017); experiment: Inhibition of human CHK2 at 1 uM using bio-4xCHKT as substrate in presence of 33P-ATP by ProQinase assay
[26] = target: Interleukin-1 receptor-associated kinase 1 (Homo sapiens) (UniProt P51617); experiment: Inhibition of recombinant human N-terminal GST-tagged IRAK1 (1 to 712 residues) expressed in baculovirus infected Sf21 cells assessed as remaining activity at 1 uM using MBP as substrate incubated for 30 mins in presence of [gamma-33P]ATP by filter binding method relative to control
[27] = target: Inhibitor of nuclear factor kappa-B kinase subunit epsilon (Homo sapiens) (UniProt Q14164); experiment: Inhibition of human IKKepsilon at 1 uM using RBER-GSK3 as substrate in presence of 33P-ATP by ProQinase assay

CC(C)(O)CNc1ncc(-c2ccnc(Nc3ccnc(Cl)c3)n2)c(CC2CC2)n1
inhibition [1]: inactive | inhibition [2]: inactive | inhibition [3]: inactive | inhibition [4]: inactive | inhibition [5]: inactive | Activity [6]: 108% | inhibition [7]: inactive | inhibition [8]: inactive | inhibition [9]: inactive | inhibition [10]: inactive | inhibition [11]: inactive | Activity [12]: 95% | inhibition [13]: inactive | inhibition [14]: inactive | inhibition [15]: inactive | inhibition [16]: inactive | inhibition [17]: inactive | inhibition [18]: inactive | inhibition [19]: inactive | inhibition (Homo sapiens [20]): inactive | Activity (Homo sapiens [21]): 122% | inhibition [22]: inactive | Activity [23]: 108% | inhibition [24]: inactive | inhibition [25]: inactive | Activity [26]: 112% | inhibition [27]: inactive

From ChEMBL document CHEMBL5705899 (Biochem J, 2014)
